{"source": "patent US12090204B2", "about": "“Photodynamic therapy compositions and methods of use thereof” (Pinnacle Biologics, Inc., priority 2020, dated 2024)", "key": {"[1]": {"tested_on": "MRSA (+)", "test": "porfimer sodium aPDT, 48 hour biofilm culture", "type": "cell-based, methicillin-resistant Staphylococcus aureus", "conditions": "630 nm, kill at 100 J/cm2 (light dose 75-100 J/cm2), porfimer sodium 250 μg/mL", "experimental": "(§1) Bacteria were routinely cultured using tryptic soy broth or agar at 37° C. in a 5% CO2 incubator. Bacteria were isolated and suspended with 0.9% NaCl to an Optical Density (OD) of 0.1 taken at 630 nm, to generate the inoculum used for either planktonic or biofilm assays.\nThe colony forming units (CFU) per mL of the starting inoculum for every experiment was determined by dilution plating. Control samples were exposed to laser at 630 nm in the absence of porfimer sodium, porfimer sodium in the absence of laser exposure, or in saline alone in the absence of porfimer sodium and 630 nm laser light. All experimental samples were dilution plated to enumerate viable CFU's. Three independent replicates were performed for each reaction condition per strain per assay. […]\n(§2) Bacteria were exposed to 630 nm laser light via a fiber optic with a lens affixed to the distal end to provide a uniform diverging light field. […] Power output of the laser was measured using a UDT/Gamma Scientific 371 optical power meter and an integrating sphere. […]\n(§3) Biofilms were formed on glass coupons in culture dishes containing a bacterial inoculum for 48 hours under conditions specific to the strain. […] Power output of the laser was measured using a UDT/Gamma Scientific 371 optical power meter and an integrating sphere. […]"}, "[2]": {"tested_on": "P. acnes (+)", "test": "porfimer sodium aPDT, planktonic culture", "type": "cell-based, Proprionibacterium acnes (Cutibacterium acnes)", "conditions": "630 nm, kill at 75 J/cm2 (light dose 50-100 J/cm2), porfimer sodium 150 μg/mL", "experimental": "as §1\n(§4) Experiments using planktonic cultures were carried out using M. catarrhalis, as a standard for further comparisons and to determine the effective drug concentration, porfimer sodium incubation time and light dose parameters which would provide an effective cell kill at the level of 5-7 logs. Once determined the experiments were repeated for all other bacterial strains examined.\n(§5) The colony forming units (CFU) per mL of the starting inoculum for every experiment was determined by dilution plating. […]\nas §2, §3"}, "[3]": {"conditions": "conventional reconstituted porfimer sodium, comparison statement; cited from earlier work"}, "[4]": {"tested_on": "P. anaerobius (+)", "test": "porfimer sodium aPDT, planktonic culture", "type": "cell-based, Peptostreptococcus anaerobius", "conditions": "630 nm, kill at 75 J/cm2 (light dose 50-100 J/cm2), porfimer sodium 150 μg/mL", "experimental": "as §1, §4, §5, §2, §3"}, "[5]": {"type": "in vivo, Yorkshire pigs", "conditions": "abraded wounds, Example 3", "source_text": "This study evaluated the antimicrobial activity and local safety of porfimer sodium when applied to abraded wounds in Yorkshire pigs.\n(§6) On Day −2 of the study, pigs were anesthetized and the skin aseptically prepared. Superficial wounds were created using the tape strip method until punctate bleeding was observed. Also on Day −2, eight wounds per pig were inoculated with one of three bacterial cultures (Haemophilus influenza, Moraxella catarrhalis, or Staphylococcus aureus) at a concentration of 10^7-10^8 CFUs per mL. There were two control sites on each side. […] The wounds were covered, analgesia in the form of buprenorphine (IM, 0.03 mg/kg) was provided, and the animals were recovered from anesthesia."}, "[6]": {"tested_on": "Haemophilus influenza", "test": "abraded skin wounds, culture swabs (Example 3)", "type": "in vivo, Yorkshire pigs", "source_text": "as §6\n(§7) On Day 0, culture swabs were collected from each wound prior to dosing. Six wounds per pig were treated with the test article and the laser light treatment. Culture swabs were collected from the test wounds 1 hour following laser light treatment and the animals were recovered from anesthesia. On Day 1, culture swabs were collected from the treated wounds and two wounds per pig were treated a second time with the test article and the laser light treatment. Culture swabs were collected from these test wounds 1 hour following laser light treatment and the animals were recovered from anesthesia. On Day 2, culture swabs were collected from each wound just prior to euthanasia.\n(§8) Porfimer sodium administration: to prepare the test article, 75 mg of porfimer sodium was reconstituted with the currently FDA approved method of 31.8 mL of 0.9% sodium chloride, resulting in a stock solution of 2.5 mg/mL. Due to concerns about stability of the solution, the solution was used immediately. A 10 ml solution at a concentration of 0.3 mg/ml (300 mcg/ml), in 0.9% Sodium Chloride Injection (USP) was prepared. 300 μg of porfimer sodium was applied as a saline solution to infected wounds (except controls) and incubated for 30 minutes prior to activation. The sites were exposed to a 630 nm laser light for up to 20 minutes. The light source, a 630PDT laser. Each wound was exposed to 200 J/cm^2."}, "[7]": {"tested_on": "Moraxella catarrhalis", "test": "abraded skin wounds, culture swabs (Example 3)", "type": "in vivo, Yorkshire pigs", "source_text": "as §6, §7, §8"}, "[8]": {"tested_on": "Staphylococcus aureus", "test": "abraded skin wounds, culture swabs (Example 3)", "type": "in vivo, Yorkshire pigs", "conditions": "for Log CFU/site, Sa: sites 2, 7: hydrogel formulation, treated twice (LPT)", "source_text": "as §6, §7, §8"}, "[9]": {"tested_on": "Moraxella catarrhalis, Methicillin resistant Staphylococcus aureus (MRSA), Porphymonas gingivalis, Cutibacterium acnes, Peptostreptococcus anaerobius …", "test": "aPDT on 48 hour biofilms of various strains, CFU (FIG. 2)", "type": "cell-based", "experimental": "Biofilms were formed on glass coupons in culture dishes containing a bacterial inoculum for 48 hours under conditions specific to the strain. The glass coupon attached biofilms were then rinsed with saline, by dipping method, prior to the administration of the porfimer sodium. The biofilms were incubated in the dark for 15-30 minutes with a reconstituted saline solution of porfimer sodium at final concentrations ranging from 75 μg/ml-250 μg/ml. The porfimer sodium treated biofilms were then exposed to light doses at 630 nm light of 50-200 J/cm^2 at a power density of 150 milliwatts per cm^2. The light was delivered using a fiberoptic with a lens attached at the distal end to provide a uniform light field over the area of the samples being treated. The accuracy of the wavelength delivered was routinely checked using an Optometrics USA Inc. 1 nm/div monochromator. Power output of the laser was measured using a UDT/Gamma Scientific 371 optical power meter and an integrating sphere. Control samples were 1) bacterial suspensions without any light or porfimer sodium (NLNP); and 2) porfimer sodium alone in bacterial suspension without any light (NLP) and 3) light alone (L). The light alone control was exposed to the highest light dose used in that particular experiment. Light doses are in joules/cm^2. Power density was 150 mW/cm^2 for each in vitro trial. […]"}, "[10]": {"tested_on": "N. gonorrhoea (−)", "test": "porfimer sodium aPDT, planktonic culture", "type": "cell-based, Neisseria gonorrhea", "conditions": "630 nm, 200 J/cm2, porfimer sodium 125 μg/mL", "experimental": "as §1, §4, §5, §2, §3"}, "[11]": {"conditions": "300 μg porfimer sodium, 30 minutes, 630 nm 200 J/cm^2"}}, "note": "Several values for one entry are separate records, joined by “and”; a condition that tells them apart may be missing. Equal values may be shown once.", "data": [{"substance": "porfimer sodium", "values": [{"measurement": "Rate of kill", "setting": "[1]", "result": 7, "unit": "Log"}, {"measurement": "Rate of kill", "setting": "[2]", "result": 7, "unit": "Log"}, {"measurement": "time stable when reconstituted with saline", "setting": "[3]", "result": 24, "unit": "h"}, {"measurement": "Rate of kill", "setting": "[4]", "result": 5, "unit": "Log"}, {"measurement": "histopathological observations, treated sites vs control sites", "setting": "[5]", "result": "no significant difference between treated sites and control sites"}, {"measurement": "antimicrobial activity when applied to inoculated wounds", "setting": "[6]; [11]", "result": "did not provide antimicrobial activity"}, {"measurement": "Log CFU/site, Hi", "setting": "[6]; sites 1, 6: hydrogel formulation, treated once (LPO), day 1, 24 h post tx", "result": "3.0 × 10^5 Log CFU/site"}, {"measurement": "Log CFU/site, Hi", "setting": "[6]; sites 2, 7: hydrogel formulation, treated twice (LPT), day 0, 1 h-post tx", "result": "1.3 × 10^4 Log CFU/site and 1.2 × 10^2 Log CFU/site"}, {"measurement": "Log CFU/site, Hi", "setting": "[6]; sites 2, 7: hydrogel formulation, treated twice (LPT), day 1, pre 2nd tx", "result": "2.0 × 10^4 Log CFU/site and 2.3 × 10^3 Log CFU/site"}, {"measurement": "antimicrobial activity when applied to inoculated wounds", "setting": "[7]; [11]", "result": "did not provide antimicrobial activity"}, {"measurement": "Log CFU/site, Mc", "setting": "[7]; sites 3, 8: porfimer sodium in saline, treated once (LPO), day 2, terminal", "result": "3.1 × 10^6 Log CFU/site and 3.0 × 10^4 Log CFU/site"}, {"measurement": "antimicrobial activity when applied to inoculated wounds", "setting": "[8]; [11]", "result": "did not provide antimicrobial activity"}, {"measurement": "Log CFU/site, Sa", "setting": "[8]; day 1, 1 h-post 2nd tx", "result": "2.1 × 10^5 Log CFU/site and 2.2 × 10^4 Log CFU/site"}, {"measurement": "Log CFU/site, Sa", "setting": "[8]; day 2, terminal", "result": "1.2 × 10^5 Log CFU/site and 1.3 × 10^6 Log CFU/site"}, {"measurement": "decrease of viability of the bacteria in biofilm", "setting": "[9]; depending on the dose", "result": "2-7 logs"}, {"measurement": "log reduction at the highest light doses (complete reduction, all strains examined)", "setting": "[9]; highest light doses used", "result": "~7", "unit": "log reduction"}, {"measurement": "Rate of kill", "setting": "[10]", "result": 4, "unit": "Log"}]}]}
